Measurements reported in US8987285B2, “Pharmaceutical compositions, dosage forms and new forms of the compound of formula (I), and methods of use thereof” (Portola Pharmaceuticals, Inc., priority 2010, dated 2015).
Values joined by “and” are separate entries in the source; they are usually repeats but may differ in a detail not shown here. Equal entries are not always repeated.

Legend:
[1] = cited from earlier work
[2] = Wettability: contact angle measurement with water on pressed powder; format: physicochemical; conditions: for surface hydrophobilicity from contact angle: critical angle around 50° (>50° hydrophob <50° hydrophil); for Contact angle: water, in ° (unit assumed)
Procedure: Contact angel instrument: EasyDrop DSA15E (Krüss, Hamburg, Germany)
Syringe: NE44, diameter of needle 0.5 mm (Krüss, Hamburg, Germany)
The powder was pressed (approx 50 mg powder, 3 tons, 2 min) in tablets and analyzed by contact angle measurement. The angel between the solid and the liquid is measured after 0 and up to 60 seconds using water.
All determinations used the above method and the limit for the standards measurements are well within the given limits.

[3] = Super-saturation measurement (CheqSol): intrinsic and kinetic solubility; format: physicochemical; conditions: for ratio super saturation: kinetic solubility divided by intrinsic solubility
Source text: Anal. Chem. 2005, 77(4), 983-990; 2—Box, K J. Völgyi, G. Baka, E. Stuart, M. Takács-Novák, K. Corner, J E A. Equilibrium vs. kinetic measurements of aqueous solubility, and the ability of compounds to supersaturate in solution—a validation study. J. Pharm. Sci. 2006, 95, 1298-1307; 3—Sköld, C. Winiwarter, S. Johan Wernevik, J. Bergström, F. Engström, L. Allen, R. Box, K. Corner, J. Mole, J. Hallberg, A. Lennernäs, H. Lundstedt, T. Ungell, A-L. Karlén, A. Presentation of a Structurally Diverse and Commercially Available Drug Data Set for Correlation and Benchmarking Studies. J. Med. Chem. 2006, 49(23), 6660-6671;
. Med. Chem.; 2007, 50 (5), 979-983; 5—Llinás, A. Box, K J. Burley, J C. Glen, R C. Goodman, J M. J. A new method for the reproducible generation of polymorphs: two forms of Sulindac with very different solubilities. […] 6—Box K et al, Using Measured pKa, Log P and Solubility to Investigate Supersaturation and Predict BCS Class, Current Drug Metabolism, 2008, 9, 869-878]
1—kinetic solubility is the concentration of a compound in solution at the time when an induced precipitate first appears
2—equilibrium solubility (also called thermodynamic solubility) is the concentration of compound in a saturated solution when excess solid is present, and solution and solid are at equilibrium
3—intrinsic solubility [Hörter, D.; Dressman, J. B. Adv. Drug Deliv. Rev., 1997, 25, 3-14] is the equilibrium solubility of the free acid or base form of an ionisable compound at a pH where it is fully un-ionized
The super-saturation ratio is calculated as the ratio of kinetic solubility divided by the Intrinsic Solubility.

[4] = Saturation solubility, shake-flask with UV quantification; format: physicochemical; conditions: for Saturation solubility / final pH measured of the supernatant: listed as The compound of formula (I)
Procedure: The FaSSIF and FeSSIF solutions were prepared using Phares SIF powder according to the formulation instructions and the SGF solution was prepared using the guidelines provided. […] The pH and temperature of the supernatant were measured on a SiriusT3 instrument.

[5] = Comparison of pharmacokinetic effects (AUC, bioavailability) in human studies for polymorphic form B, A and D; format: in vivo; conditions: human, plasma, oral, 150 mg, polymorphs of the potassium salt
Procedure: Comparison of pharmacokinetic effects in human studies for polymorphic form B, A and D of the potassium salt of elinogrel.
Therefore the polymorphic form does have a strong impact on the bioavailability of the drug.
The bioavailability is measured in a human study according to FDA guidelines for conducting bioavailability studies. The area under the curve (AUC) of elinogrel potassium salt polymorph.

[6] = Solubility-excipient screening (Sirius CheqSol, 0.15 M aqueous KCl); format: physicochemical; conditions: drug:excipient 1:1 by weight, Form A titrated from pH 12 with 0.5 M HCl
Procedure: In all experiments, the compound of formula (II) and excipient were present at a 1:1 weight ratio. For each excipient, Form A of the potassium salt was titrated at an initial concentration of ˜1 mg/ml from pH 12 to low pH with 0.5 M HCl. A UV-turbidity probe was used to detect the presence of sample precipitate and all experiments were carried out according to standard CheqSol procedure.

**Q.** With NCCCC[C@H](N)C(=O)O [Lysine] as the molecule, how does the “Aqueous Solubility” value [1] read?
**A.** Its value is “free soluble”.

**Q.** With CNc1cc2[nH]c(=O)n(-c3ccc(NC(=O)[N-]S(=O)(=O)c4ccc(Cl)s4)cc3)c(=O)c2cc1F.[K+] [Form B] as the molecule, how does the “surface hydrophobilicity from contact angle” value ([2]; listed as polymorph B) read?
**A.** Its value is “hydrophob”.

**Q.** What about the Contact angle ([2]; 0 sec, listed as B) of the same molecule?
**A.** The Contact angle was 79.7 and 72.4.

**Q.** And the Contact angle ([2]; 30 sec, listed as B)?
**A.** Its Contact angle is 55.2 and 54.6.

**Q.** And the Contact angle ([2]; 60 sec, listed as B)?
**A.** The Contact angle was 52.8 and 53.5.

**Q.** And the ratio super saturation ([3]; listed as K-salt-Form B)?
**A.** The ratio super saturation was 363.

**Q.** What about the ratio super saturation ([3]; listed as polymorph B of the compound of formula (I)) of the same molecule?
**A.** Its ratio super saturation is 363.

**Q.** What about the Saturation solubility ([4]; FaSSIF pH 6.5-1w, mean N = 2, form B) of the same molecule?
**A.** The Saturation solubility was 132.50 µg/mL.

**Q.** And the “final pH measured of the supernatant” value ([4]; FaSSIF pH 6.5-1w, form B)?
**A.** Its value is 6.97.

**Q.** What about the Saturation solubility ([4]; FeSSIF pH 5.0-1w, mean N = 2, form B) of the same molecule?
**A.** The Saturation solubility was 2.49 µg/mL.

**Q.** What about the “final pH measured of the supernatant” value ([4]; FeSSIF pH 5.0-1w, form B) of the same molecule?
**A.** The value was 5.16.

**Q.** And the Saturation solubility ([4]; Na Phosphate pH 6.8, mean N = 2, form B)?
**A.** Its Saturation solubility is 25.95 µg/mL.

**Q.** And the “final pH measured of the supernatant” value ([4]; Na Phosphate pH 6.8, form B)?
**A.** Its value is 7.02.

**Q.** What about the Saturation solubility ([4]; Na-Acetate pH 4.5, mean N = 2, form B) of the same molecule?
**A.** Its Saturation solubility is 0.40 µg/mL.

**Q.** What about the “final pH measured of the supernatant” value ([4]; Na-Acetate pH 4.5, form B) of the same molecule?
**A.** The value was 4.81.

**Q.** What about the Saturation solubility ([4]; SGF pH 2.1, mean N = 2, form B) of the same molecule?
**A.** Its Saturation solubility is 19.14 µg/mL.

**Q.** What about the “final pH measured of the supernatant” value ([4]; SGF pH 2.1, form B) of the same molecule?
**A.** The value was 5.05.

**Q.** And the AUC [5]?
**A.** The AUC was 27600 ng·h/mL.

**Q.** Which results are given for CNc1cc2[nH]c(=O)n(-c3ccc(NC(=O)[N-]S(=O)(=O)c4ccc(Cl)s4)cc3)c(=O)c2cc1F.[K+] [Form A]?
**A.** pH first precipitation occurs [6]: 5.3; Kinetic solubility ([6]; ~1 mg/ml): 12.57 µM; surface hydrophobilicity from contact angle ([2]; listed as polymorph A): hydrophob; Contact angle ([2]; 0 sec, listed as A): 78.8; Contact angle ([2]; 30 sec, listed as A): 53.3; Contact angle ([2]; 60 sec, listed as A): 51.0; solubility kinetic ([3]; kinetic from dmso stock, CheqSol): 6.57 µg/mL; ratio super saturation ([3]; listed as K-salt-Form A): 412; solubility ([3]; thermodynamic from solid, CheqSol): 0.0159 µg/mL; final pH measured of the supernatant ([4]; FaSSIF pH 6.5-1w, form A): 6.93; Saturation solubility ([4]; FeSSIF pH 5.0-1w, mean N = 2, form A): 2.76 µg/mL; final pH measured of the supernatant ([4]; FeSSIF pH 5.0-1w, form A): 5.15; Saturation solubility ([4]; Na Phosphate pH 6.8, mean N = 2, form A): 20.25 µg/mL; final pH measured of the supernatant ([4]; Na Phosphate pH 6.8, form A): 6.94; Saturation solubility ([4]; Na-Acetate pH 4.5, mean N = 2, form A): 0.48 µg/mL; final pH measured of the supernatant ([4]; Na-Acetate pH 4.5, form A): 4.81; Saturation solubility ([4]; SGF pH 2.1, mean N = 2, form A): 2.24 µg/mL; final pH measured of the supernatant ([4]; SGF pH 2.1, form A): 4.74; solubility at 72 h ([4]; pH 6.5, fassif, thermodynamic from solid, FaSSIF pH 6.5-1w, mean N = 2): 107 µg/mL
